The text below walks through data of ChEMBL document CHEMBL5465560, “Selectivity Literature for EUbOPEN Chemogenomic Library” (2024).

Experiment [1] has as its target Calcium/calmodulin-dependent protein kinase type 1D (Homo sapiens) (UniProt Q8IU85). Nature of the experiment: Selectivity interaction (Kinase panel (Z-LYTE Assay)) EUB0001632a CAMK1D. Particulars: at 10 µM.
The target in experiment [2] is Serine/threonine-protein kinase 10 (Homo sapiens) (UniProt O94804). In words: Selectivity interaction (Kinase panel (KiNativ target engagement assay in Jurkat cells)) EUB0001635a STK10. Particulars: Selectivity number of off-targets 0.0, Selectivity number of targets 233.0, Source Knowledge https://www.sciencedirect.com/science/article/pii/S2451945619300674?via%3Dihub, at 1 µM. It is filed as cell-based.
Sequence of Serine/threonine-protein kinase 10 (Homo sapiens) (O94804 whole entry, looked up): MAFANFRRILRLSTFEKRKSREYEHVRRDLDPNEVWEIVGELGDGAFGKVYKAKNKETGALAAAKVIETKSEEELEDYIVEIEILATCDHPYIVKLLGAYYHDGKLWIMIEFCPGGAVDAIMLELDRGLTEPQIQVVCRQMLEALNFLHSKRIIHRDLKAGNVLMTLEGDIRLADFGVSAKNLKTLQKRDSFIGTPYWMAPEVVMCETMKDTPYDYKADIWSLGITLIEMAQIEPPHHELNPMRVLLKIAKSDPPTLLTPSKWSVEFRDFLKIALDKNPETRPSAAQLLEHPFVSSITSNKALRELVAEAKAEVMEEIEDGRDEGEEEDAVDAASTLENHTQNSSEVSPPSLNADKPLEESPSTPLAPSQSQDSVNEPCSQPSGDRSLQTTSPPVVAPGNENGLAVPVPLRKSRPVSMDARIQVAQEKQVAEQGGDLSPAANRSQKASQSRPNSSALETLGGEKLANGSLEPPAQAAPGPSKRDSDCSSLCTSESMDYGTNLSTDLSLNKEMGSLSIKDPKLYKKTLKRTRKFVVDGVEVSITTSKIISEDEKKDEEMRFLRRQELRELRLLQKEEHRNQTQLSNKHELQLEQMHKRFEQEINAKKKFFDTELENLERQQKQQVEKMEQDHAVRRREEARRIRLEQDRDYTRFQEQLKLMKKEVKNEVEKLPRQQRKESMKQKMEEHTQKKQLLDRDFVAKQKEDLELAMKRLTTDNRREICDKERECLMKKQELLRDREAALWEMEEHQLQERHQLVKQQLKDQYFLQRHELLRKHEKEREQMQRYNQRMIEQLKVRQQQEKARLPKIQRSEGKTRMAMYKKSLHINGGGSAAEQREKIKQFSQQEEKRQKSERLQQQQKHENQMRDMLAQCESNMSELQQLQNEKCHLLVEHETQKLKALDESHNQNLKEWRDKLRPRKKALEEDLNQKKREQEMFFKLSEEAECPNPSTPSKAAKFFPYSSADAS

Experiment [3] addresses T1, Ephrin type-A receptor 3 (Homo sapiens) (UniProt P29320).
T1 sequence (whole entry): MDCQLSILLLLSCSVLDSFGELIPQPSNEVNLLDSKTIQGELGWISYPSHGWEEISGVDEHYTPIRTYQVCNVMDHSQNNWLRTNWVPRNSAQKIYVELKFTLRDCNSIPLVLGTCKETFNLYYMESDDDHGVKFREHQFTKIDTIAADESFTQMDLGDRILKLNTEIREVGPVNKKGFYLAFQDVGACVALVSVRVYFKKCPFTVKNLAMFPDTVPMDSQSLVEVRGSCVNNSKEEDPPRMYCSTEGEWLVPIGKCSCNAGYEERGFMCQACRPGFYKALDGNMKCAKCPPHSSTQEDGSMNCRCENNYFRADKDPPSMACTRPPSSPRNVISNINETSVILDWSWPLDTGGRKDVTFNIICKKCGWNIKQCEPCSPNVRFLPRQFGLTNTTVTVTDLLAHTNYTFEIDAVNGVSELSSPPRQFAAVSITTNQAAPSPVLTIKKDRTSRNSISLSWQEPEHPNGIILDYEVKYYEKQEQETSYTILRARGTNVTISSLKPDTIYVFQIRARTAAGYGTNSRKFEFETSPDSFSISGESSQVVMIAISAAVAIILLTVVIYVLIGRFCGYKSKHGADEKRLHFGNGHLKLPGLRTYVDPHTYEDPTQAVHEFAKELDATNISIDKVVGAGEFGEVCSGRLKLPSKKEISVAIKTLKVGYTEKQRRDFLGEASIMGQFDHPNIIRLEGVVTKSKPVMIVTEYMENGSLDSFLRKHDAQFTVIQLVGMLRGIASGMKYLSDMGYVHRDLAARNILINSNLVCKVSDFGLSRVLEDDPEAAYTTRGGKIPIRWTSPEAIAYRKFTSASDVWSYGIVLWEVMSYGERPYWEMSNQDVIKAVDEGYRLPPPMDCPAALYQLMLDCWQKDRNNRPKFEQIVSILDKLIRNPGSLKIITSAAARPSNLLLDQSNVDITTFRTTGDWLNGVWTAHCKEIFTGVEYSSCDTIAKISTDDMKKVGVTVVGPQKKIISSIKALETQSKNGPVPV
Particulars: at 10 µM.

Experiment [4] addresses T2, Receptor-interacting serine/threonine-protein kinase 1 (Homo sapiens) (UniProt Q13546).
T2 sequence (whole entry): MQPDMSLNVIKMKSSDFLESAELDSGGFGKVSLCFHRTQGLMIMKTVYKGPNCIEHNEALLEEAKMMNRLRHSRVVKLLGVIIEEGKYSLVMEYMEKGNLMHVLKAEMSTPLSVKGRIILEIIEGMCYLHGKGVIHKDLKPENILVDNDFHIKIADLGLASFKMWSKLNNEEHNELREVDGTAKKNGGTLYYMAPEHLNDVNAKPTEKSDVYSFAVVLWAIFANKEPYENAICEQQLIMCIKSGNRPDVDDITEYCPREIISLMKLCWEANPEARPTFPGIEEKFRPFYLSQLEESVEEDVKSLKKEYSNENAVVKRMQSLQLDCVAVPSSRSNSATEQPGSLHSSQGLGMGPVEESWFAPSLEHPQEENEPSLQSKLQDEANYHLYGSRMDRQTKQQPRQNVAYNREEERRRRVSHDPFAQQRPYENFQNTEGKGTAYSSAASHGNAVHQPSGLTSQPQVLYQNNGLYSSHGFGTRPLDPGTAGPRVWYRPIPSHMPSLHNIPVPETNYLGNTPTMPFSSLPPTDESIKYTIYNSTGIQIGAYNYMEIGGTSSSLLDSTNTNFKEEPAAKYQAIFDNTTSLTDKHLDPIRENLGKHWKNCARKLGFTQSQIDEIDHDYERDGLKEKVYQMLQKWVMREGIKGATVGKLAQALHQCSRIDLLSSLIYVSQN
Nature of the experiment: Selectivity interaction (KinomeScan (DiscoverX)) EUB0000666a RIPK1. Particulars: at 10 µM.

Experiment [5] has as its target Mitogen-activated protein kinase kinase kinase kinase 4 (Homo sapiens, UniProt O95819). In words: Selectivity interaction (SelectScreen Kinase Profiling (Thermo Fisher Scientific)) EUB0001558a MAP4K4. Particulars: at 1 µM.
Experiment [6] has as its target T3, Non-receptor tyrosine-protein kinase TNK1 (Homo sapiens) (UniProt Q13470).
T3 sequence (whole entry): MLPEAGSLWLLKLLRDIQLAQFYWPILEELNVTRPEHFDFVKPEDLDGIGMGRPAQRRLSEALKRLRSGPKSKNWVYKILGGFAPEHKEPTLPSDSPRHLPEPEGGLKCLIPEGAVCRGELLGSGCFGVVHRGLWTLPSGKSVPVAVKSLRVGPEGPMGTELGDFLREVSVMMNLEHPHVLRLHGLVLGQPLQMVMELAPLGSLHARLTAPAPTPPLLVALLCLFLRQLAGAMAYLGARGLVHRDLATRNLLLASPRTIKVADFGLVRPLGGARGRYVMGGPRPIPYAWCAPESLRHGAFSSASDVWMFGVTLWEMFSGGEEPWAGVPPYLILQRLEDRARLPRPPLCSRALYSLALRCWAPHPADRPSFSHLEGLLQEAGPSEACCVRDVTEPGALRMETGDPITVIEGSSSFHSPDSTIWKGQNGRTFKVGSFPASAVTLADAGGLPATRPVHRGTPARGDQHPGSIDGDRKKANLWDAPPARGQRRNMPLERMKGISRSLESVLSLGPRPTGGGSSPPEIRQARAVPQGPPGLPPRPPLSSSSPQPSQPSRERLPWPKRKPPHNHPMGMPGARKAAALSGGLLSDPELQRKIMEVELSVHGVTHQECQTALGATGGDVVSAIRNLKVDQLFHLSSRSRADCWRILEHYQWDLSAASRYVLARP
Nature of the experiment: Selectivity interaction (KinomeScan (DiscoverX)) EUB0001079a TNK1. Particulars: at 1 µM.

The target of experiment [7] is Alpha-1D adrenergic receptor (Homo sapiens) (UniProt P25100). In words: Selectivity interaction (GPCR panel (PDSP screen)) EUB0001079a ADRA1D. Particulars: at 10 µM.
Sequence of Alpha-1D adrenergic receptor (Homo sapiens) (P25100 whole entry): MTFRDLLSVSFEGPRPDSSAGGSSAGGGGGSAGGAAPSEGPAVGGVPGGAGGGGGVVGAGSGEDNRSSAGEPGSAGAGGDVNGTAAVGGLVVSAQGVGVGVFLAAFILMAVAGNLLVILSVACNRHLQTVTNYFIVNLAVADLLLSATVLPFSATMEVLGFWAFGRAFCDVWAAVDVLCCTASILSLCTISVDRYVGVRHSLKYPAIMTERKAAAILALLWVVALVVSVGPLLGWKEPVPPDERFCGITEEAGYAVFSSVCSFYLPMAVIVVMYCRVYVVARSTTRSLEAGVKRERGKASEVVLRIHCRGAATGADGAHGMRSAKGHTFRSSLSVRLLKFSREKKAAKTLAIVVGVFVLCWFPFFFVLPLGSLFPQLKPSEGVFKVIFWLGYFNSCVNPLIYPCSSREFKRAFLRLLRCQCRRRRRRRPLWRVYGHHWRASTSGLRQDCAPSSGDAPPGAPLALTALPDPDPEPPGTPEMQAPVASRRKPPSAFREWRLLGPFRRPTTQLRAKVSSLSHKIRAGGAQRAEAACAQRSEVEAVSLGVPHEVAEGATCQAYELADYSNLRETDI
Experiment [8] concerns the target Mitogen-activated protein kinase 8 (Homo sapiens, UniProt P45983). In words: Selectivity interaction (Kinase panel (Invitrogen)) EUB0000639a MAPK8. Particulars: at 200 nM.
The target of experiment [9] is Proto-oncogene tyrosine-protein kinase Src (Homo sapiens, UniProt P12931). Nature of the experiment: Selectivity interaction (KinomeScan (DiscoverX)) EUB0000595a SRC. Particulars: at 10 µM.
Sequence of Proto-oncogene tyrosine-protein kinase Src (P12931 2-536 limits assumed): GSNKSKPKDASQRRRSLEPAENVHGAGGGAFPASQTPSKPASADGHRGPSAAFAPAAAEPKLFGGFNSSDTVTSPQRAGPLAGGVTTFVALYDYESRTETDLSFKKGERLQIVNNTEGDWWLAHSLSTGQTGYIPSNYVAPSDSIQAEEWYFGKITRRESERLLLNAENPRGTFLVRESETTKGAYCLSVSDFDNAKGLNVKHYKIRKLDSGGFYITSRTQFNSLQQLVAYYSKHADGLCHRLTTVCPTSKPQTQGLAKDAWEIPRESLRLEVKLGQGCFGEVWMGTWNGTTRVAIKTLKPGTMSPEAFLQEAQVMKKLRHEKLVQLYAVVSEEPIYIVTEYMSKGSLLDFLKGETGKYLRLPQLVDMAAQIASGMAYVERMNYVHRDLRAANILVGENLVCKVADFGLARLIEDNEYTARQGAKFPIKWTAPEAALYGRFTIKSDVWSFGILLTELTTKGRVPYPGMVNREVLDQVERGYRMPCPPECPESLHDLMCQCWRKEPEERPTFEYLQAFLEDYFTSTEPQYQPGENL

Sequence of Mitogen-activated protein kinase kinase kinase kinase 4 (O95819 2-1239 limits assumed): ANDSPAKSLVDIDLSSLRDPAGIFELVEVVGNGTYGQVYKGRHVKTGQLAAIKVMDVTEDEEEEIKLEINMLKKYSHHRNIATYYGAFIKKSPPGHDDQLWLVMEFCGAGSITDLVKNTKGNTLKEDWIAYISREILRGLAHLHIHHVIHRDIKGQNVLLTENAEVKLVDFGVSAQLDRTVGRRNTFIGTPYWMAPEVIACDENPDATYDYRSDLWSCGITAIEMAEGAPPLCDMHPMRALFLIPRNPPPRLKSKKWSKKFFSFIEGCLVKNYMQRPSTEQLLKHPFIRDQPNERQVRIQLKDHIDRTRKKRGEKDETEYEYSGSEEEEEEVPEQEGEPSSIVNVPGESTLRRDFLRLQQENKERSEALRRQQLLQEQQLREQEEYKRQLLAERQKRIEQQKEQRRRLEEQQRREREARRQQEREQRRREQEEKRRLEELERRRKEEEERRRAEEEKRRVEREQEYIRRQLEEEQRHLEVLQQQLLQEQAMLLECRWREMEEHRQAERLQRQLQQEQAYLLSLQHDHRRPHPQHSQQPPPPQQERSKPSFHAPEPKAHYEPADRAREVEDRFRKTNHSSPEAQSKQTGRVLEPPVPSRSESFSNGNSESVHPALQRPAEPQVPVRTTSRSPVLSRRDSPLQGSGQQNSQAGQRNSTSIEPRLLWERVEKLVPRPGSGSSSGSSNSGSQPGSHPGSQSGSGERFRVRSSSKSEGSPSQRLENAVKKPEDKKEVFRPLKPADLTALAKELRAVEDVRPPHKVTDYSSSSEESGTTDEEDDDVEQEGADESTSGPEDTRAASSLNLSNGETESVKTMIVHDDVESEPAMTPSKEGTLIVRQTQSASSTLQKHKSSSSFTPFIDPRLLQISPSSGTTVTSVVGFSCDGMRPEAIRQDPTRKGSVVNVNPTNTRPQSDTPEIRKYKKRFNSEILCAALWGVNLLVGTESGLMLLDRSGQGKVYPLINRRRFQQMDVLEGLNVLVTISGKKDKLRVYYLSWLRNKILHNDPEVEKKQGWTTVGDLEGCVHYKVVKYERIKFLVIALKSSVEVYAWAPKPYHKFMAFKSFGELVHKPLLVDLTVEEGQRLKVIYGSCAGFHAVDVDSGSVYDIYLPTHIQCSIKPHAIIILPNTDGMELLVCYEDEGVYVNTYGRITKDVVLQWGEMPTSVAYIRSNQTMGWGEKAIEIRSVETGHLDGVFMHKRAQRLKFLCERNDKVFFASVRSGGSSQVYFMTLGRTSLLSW
Sequence of Calcium/calmodulin-dependent protein kinase type 1D (Homo sapiens) (Q8IU85 whole entry, looked up): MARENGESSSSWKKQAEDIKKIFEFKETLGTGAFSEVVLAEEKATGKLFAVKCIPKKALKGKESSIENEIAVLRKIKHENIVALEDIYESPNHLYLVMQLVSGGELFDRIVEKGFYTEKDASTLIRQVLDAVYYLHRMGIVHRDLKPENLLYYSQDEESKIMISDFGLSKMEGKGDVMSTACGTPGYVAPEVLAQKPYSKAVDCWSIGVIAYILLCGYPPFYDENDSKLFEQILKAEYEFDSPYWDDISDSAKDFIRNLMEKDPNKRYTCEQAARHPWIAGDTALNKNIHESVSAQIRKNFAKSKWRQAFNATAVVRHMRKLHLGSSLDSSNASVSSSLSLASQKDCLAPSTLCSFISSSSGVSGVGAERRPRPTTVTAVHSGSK
Sequence of Mitogen-activated protein kinase 8 (P45983 whole entry): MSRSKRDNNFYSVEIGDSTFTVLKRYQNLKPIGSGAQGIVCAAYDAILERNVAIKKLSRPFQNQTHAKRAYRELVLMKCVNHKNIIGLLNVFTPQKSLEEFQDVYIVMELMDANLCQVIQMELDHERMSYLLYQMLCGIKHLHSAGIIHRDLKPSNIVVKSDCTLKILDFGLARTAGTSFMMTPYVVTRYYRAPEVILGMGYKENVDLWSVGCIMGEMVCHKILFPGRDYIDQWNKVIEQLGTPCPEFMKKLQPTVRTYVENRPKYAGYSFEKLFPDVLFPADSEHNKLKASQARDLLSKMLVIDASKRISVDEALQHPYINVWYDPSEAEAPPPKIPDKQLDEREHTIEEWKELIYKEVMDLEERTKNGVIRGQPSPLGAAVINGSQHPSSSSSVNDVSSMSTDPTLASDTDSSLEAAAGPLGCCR

`Cn1cc(-n2cnc3c(NCc4nc5cc(Cl)c(Cl)cc5[nH]4)nc(N4CCOCC4)nc32)cn1`: the % of control in experiment [1] is 2.81%. Turning to `C=CC(=O)Nc1ccc(C(=O)Nc2[nH]nc3c2CN(C(=O)N[C@H](CN(C)C)c2ccccc2)C3(C)C)cc1`, the % of engagement in experiment [2] was -2.2%. Regarding `Cc1cc([C@@H](C)Nc2ccccc2C(=O)O)c2nc(N3CCOCC3)cc(=O)n2c1` [AZD-6482], the % of control in experiment [3] was determined as 79%. For `O=C(NOC[C@H](O)CO)c1ccc(F)c(F)c1Nc1ccc(I)cc1F`, the % of control in experiment [4] is 85%.

`CC(C)(O)[C@H](F)CN1Cc2cc(NC(=O)c3cnn4cccnc34)c(N3CCOCC3)cc2C1=O`: the % of inhibition in [5] was found to be 86.3%. In [6], `Nc1cnc(N2CCc3cc(S(=O)(=O)Nc4c(F)cc(Cl)cc4F)cc(N4CCCC4=O)c32)nc1` [TP-020n] came in with a % of control of 100%. Moreover, the % of inhibition in experiment [7] was -2.31%. In the case of `CC[C@@H]1[C@H](F)C(=O)N[C@@H]1COc1nccc2cc(C(N)=O)c(OC)cc12` [ZIMLOVISERTIB], the % of inhibition in [8] is -0.665%. `COCC(=O)NC/C=C/c1ccc2ncnc(Nc3ccc(Oc4ccc(C)nc4)c(C)c3)c2c1` [CP-724714]: the % of control in experiment [9] was determined as 97%.
